Laboratory results taken from patent US12071424B2, “IRE1 small molecule inhibitors” (Cornell University, priority 2017, dated 2024).

Legend:
[1] = system: IRE1a; assay: IRE1a Endoribonuclease Nanoluciferase Assay (XBP1 luciferase reporter in 293T cells); format: cell-based, human; conditions: Homo sapiens, HEK-293T, ER stressor, tested as Formic Acid Salt (37: HCl Salt)
Experimental: Compounds disclosed herein assessed for disruption of IRE1 signaling using a IRE1a Endoribonuclease Nanoluciferase Assay. Briefly, 25×10^5 293T cells were seeded in a 10 cm^2 tissue culture plate. About 24 hours later, the cells were transfected with Effectene. In a 15 mL tube, the following was added: 2 ug XBP1 luciferase reporter plasmid (PGK-Luc2-P2A-XBP1u-Nanoluciferase-Pest); 300 ul EC buffer; and 16 ul Enhancer, followed by incubation at room temp for 5 minutes. Next, 60 ul Effectene (Qiagen 301427) was added, followed by incubation at room temperature for 10 minutes. 2.6 mL cDMEM media was added. Old media was aspirated from the cells, followed by addition of 7 mL fresh media. Full transfection mixture was added dropwise to cells. Cells were incubated for 6 hours, followed by trypsinization, centrifugation and resuspension in 11 mL fresh cDMEM media. 100 uL of cells were plated per a well in a 96 well plate. A day later, ER stressors of choice +/−inhibitors were added. To harvest, media was aspirated from cells completely, then 50 uL 1× passive lysis buffer (Promega: E1941) was added per well and put on shaker (300 rpm) for 30 minutes at room temperature. Cells were centrifuged, and 15 uL sample per well was added to a new, opaque white 384 well plate (Corning 3570). 15 uL OneGlo (nanoluciferase kit, Promega N1630) was added. Plates were spun down, placed on shaker (300 rpm) for 10 minutes. Plates were read on luminometer, 1000 ms integration time per well. 15 uL Stop an Glo (nanoluciferase kit) was added. Plates were spun down, placed on shaker (300 rpm) for 10 minutes. Plates were read on luminometer, 1000 ms second integration time per well. Recordings are provided below in Table 4.

[2] = target: T1, IRE1a (Homo sapiens, UniProt O75460); assay: In vitro FRET assay (IRE1a cleavage of XBP1 RNA probe); format: biochemical; conditions: 2 nM SignalChem IRE1a, tested as Formic Acid Salt (37: HCl Salt)
T1 construct: purchased SignalChem
T1 sequence (O75460 19-977): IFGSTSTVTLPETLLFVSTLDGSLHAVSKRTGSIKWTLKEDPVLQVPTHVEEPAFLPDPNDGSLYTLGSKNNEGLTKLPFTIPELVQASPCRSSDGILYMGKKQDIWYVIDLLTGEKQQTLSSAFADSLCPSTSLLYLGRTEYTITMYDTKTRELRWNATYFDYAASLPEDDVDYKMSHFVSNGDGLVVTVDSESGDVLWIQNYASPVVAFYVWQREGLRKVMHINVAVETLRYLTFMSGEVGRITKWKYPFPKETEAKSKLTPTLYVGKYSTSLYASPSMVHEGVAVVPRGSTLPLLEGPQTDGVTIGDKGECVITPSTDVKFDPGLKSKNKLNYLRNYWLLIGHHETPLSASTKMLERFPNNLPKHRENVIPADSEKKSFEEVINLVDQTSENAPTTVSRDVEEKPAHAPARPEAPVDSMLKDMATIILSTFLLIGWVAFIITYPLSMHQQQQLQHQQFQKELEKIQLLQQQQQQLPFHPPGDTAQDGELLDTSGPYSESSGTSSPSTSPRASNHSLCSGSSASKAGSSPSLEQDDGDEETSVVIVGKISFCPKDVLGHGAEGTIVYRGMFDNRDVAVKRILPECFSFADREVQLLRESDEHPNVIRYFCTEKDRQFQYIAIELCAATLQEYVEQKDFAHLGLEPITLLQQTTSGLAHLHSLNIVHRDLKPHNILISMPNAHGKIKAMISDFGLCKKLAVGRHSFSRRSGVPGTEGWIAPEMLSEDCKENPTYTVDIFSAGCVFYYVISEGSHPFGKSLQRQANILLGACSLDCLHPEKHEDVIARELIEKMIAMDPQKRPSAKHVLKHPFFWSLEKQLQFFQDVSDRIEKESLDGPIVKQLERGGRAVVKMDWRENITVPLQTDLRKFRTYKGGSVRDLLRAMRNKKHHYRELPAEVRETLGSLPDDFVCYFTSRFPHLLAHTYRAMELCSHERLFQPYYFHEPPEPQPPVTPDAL
Experimental: In vitro FRET assay was performed to evaluate the ability of select compounds to inhibit IRE1, the results of which are summarized in Table 3. To perform the in vitro FRET assay, 1× complete assay buffer (CAB: […], 50 mM sodium citrate pH 7.15, 1 mM magnesium acetate, 0.02% tween 20) was used to SignalChem IRE1a protein to a final concentration of 2 nM. Selected compounds were serially diluted with DMSO in a non-binding black 384-well plate for a total of 15 ul in each well. 2 ul of the serially diluted compound or DMSO control were then added to new wells containing 98 ul of 1× CAB, for a total volume of 100 ul, 10 ul of which were then transferred to wells of a new plate. 5 ul of the diluted IRE1a was then added to each well. 5 ul of a […] XBP1 RNA probe was then added to each well. Fluorescence was then read over 30 minutes in kinetic mode (485/515 nm).
Two RNA probes were used, XBP1 wildtype (SEQ ID NO: 2) which is able to be spliced by active IRE1a or XBP1 mutant (SEQ ID NO: 3) which is unable to be spliced. Each probe contained a 5′ 6-FAM modification and a 3′ IOWA black FQ modification. […]

EC50 [1] [nM] | IC50 [2] [nM] | Structure (SMILES)
5 to 50 | ≤ 5 | CCc1cc(-c2nnc(NS(=O)(=O)c3ccccc3Cl)cc2OC)cc2cnc(N[C@H]3CC[C@H](N(C)C)CC3)nc12 [Compound 159, 2-chloro-N-(6-(2-(((1r,4r)-4-(dimethylamino)cyclohexyl)amino)-8-ethylquinazolin-6-yl)-5-methoxypyridazin-3-yl)benzenesulfonamide]
100 to 10000 | ≤ 5 | CCc1cc(-c2ccc(NS(=O)(=O)c3ccccc3Cl)nc2OC)cc2cnc(N[C@H]3CC[C@@H](N(C)C)CC3)nc12 [Compound 141, 2-chloro-N-(5-(2-(((1s,4s)-4-(dimethylamino)cyclohexyl)amino)-8-ethylquinazolin-6-yl)-6-methoxypyridin-2-yl)benzenesulfonamide]
≤ 5 | ≤ 5 | CCc1cc(-c2ccc(NS(=O)(=O)c3ccccc3Cl)nc2C)cc2cnc(N[C@H]3CC[C@H](N(C)CC)CC3)nc12 [Compound 125, 2-chloro-N-(5-(8-ethyl-2-(((1r,4r)-4-(ethyl(methyl)amino)cyclohexyl)amino)quinazolin-6-yl)-6-methylpyridin-2-yl)benzenesulfonamide]
50 to 100 | ≤ 5 | Cc1nc(NS(=O)(=O)c2ccccc2Cl)ncc1-c1ccc2nc(N[C@H]3CC[C@H](N)CC3)ncc2c1 [Compound 68, N-(5-(2-(((1r,4r)-4-aminocyclohexyl)amino)quinazolin-6-yl)-4-methylpyrimidin-2-yl)-2-chlorobenzene-sulfonamide]
≤ 5 | ≤ 5 | CCc1cc(-c2cc(F)c(NS(=O)(=O)c3ccccc3Cl)nc2C)cc2cnc(N[C@H]3CC[C@H](N(C)C)CC3)nc12 [Compound 97, 2-chloro-N-(5-(2-(((1r,4r)-4-(dimethylamino)cyclohexyl)amino)-8-ethylquinazolin-6-yl)-3-fluoro-6-methylpyridin-2-yl)benzenesulfonamide]
≤ 5 | ≤ 5 | Cc1nc(NS(=O)(=O)c2ccccc2Cl)ccc1-c1cc(C(C)(F)F)c2nc(N[C@H]3CC[C@H](N(C)C)CC3)ncc2c1 [Compound 131]
5 to 50 | ≤ 5 | O=S(=O)(Nc1ccc(-c2ccc3nc(N[C@H]4CCCNC4)ncc3c2)cc1F)c1ccccc1Cl [Compound 76, (S)-2-chloro-N-(2-fluoro-4-(2-(piperdin-3-ylamino)quinazolin-6-yl)phenyl) benzenesulfon-amide]
≤ 5 | ≤ 5 | CCc1cc(-c2ccc(NS(=O)(=O)c3ccccc3C)nc2OC)cc2cnc(N[C@H]3CC[C@H](NC)CC3)nc12 [Compound 118, N-(5-(8-ethyl-2-(((1r,4r)-4-(methylamino)cyclohexyl)amino)quinazolin-6-yl)-6-methoxypyridin-2-yl)-2-methylbenzenesulfonamide]
≤ 5 | ≤ 5 | CCc1cc(-c2ccc(NS(=O)(=O)c3ccccc3Cl)c(F)c2)cc2cnc(NC34CCC(N)(CC3)CC4)nc12 [Compound 87, N-(4-(2-((4-aminobicyclo[2.2.2]octan-1-yl)amino)-8-ethylquinazolin-6-yl)-2-fluorophenyl)-2-chlorobenzene-sulfonamide]
5 to 50 | ≤ 5 | Cc1cc2nc(N[C@H]3CC[C@H](N)CC3)ncc2cc1-c1ccc(NS(=O)(=O)c2ccccc2Cl)c(F)c1 [Compound 90, N-(4-(2-(((1r,4r)-4-aminocyclohexyl)amino)-7-methylquinazolin-6-yl)-2-fluorophenyl)-2-chlorobenzene-sulfonamide]
≤ 5 | ≤ 5 | COc1nc(NS(=O)(=O)c2ccccc2Cl)ccc1-c1cc(C(F)(F)F)c2nc(N[C@H]3CC[C@H](N(C)C)CC3)ncc2c1 [Compound 135, 2-chloro-N-(5-(2-(((1r,4r)-4-(dimethylamino)cyclohexyl)amino)-8-(trifluoromethyl)quinazolin-6-yl)-6-methoxypyridin-2-yl)benzenesulfonamide]
